Experimental data taken from patent publication US20020115723A1, “Cysteine derivatives” (AJINOMOTO CO., INC., priority 1998, published 2002).
Where “and” joins values, the source holds several entries; their conditions need not be identical. Identical values can stand only once.

What was measured:
NF-κB = experiment: Test on the function of inhibiting the activation of NF-κB induced by ultraviolet rays (gel shift assay); format: cell-based, human; conditions: human epidermal cells, UVB 50 mJ/cm^2
Protocol: Test on the Function of Inhibiting the Activation of NF-κB Induced by Ultraviolet Rays.
After 18 hours had elapsed, the culture medium was substituted by a phenol red-free medium. The cells were exposed to ultraviolet rays (UVB: 50 mJ/cm^2) from an ultraviolet irradiator “Dermaray M-DMR-80” (ex Toshiba Medical Supply Co., Ltd.). After 4 to 5 hours had elapsed, the cells were collected, and the nucleoprotein was extracted therefrom in a manner known per se in the art. From the resulting nucleoprotein, the activated NF-κB was detected in accordance with the gel shift assay. The amount of the NF-κB was determined by measuring the radioactive value of the NF-κB band with the use of a bioimaging analyzer “BAS 2000” (ex Fuji Film Co., Ltd.).
The inhibition ratio of the activation of the NF-κB of the test compounds was calculated from the below-described formula (1).
Inhibition ratio of NF-κB activation (%)={1−(A1-A3)/(A2-A3)}×100 (1)
A1: radioactive value of the NF-κB upon addition of a test compound
A2: radioactive value of NF-κB when a test compound is not added
A3: radioactive value of NF-κB when a test compound is not added and is not exposed to ultraviolet rays.

human epidermal cells = experiment: Toxicity to the cultured human epidermal cells seen in the NF-κB / AP-1 activation tests; format: cell-based
Protocol: Each of the test compounds was added to a culture plate at a concentration within an extent not causing a damage to the human epidermal cells which had reached the confluent stage in the culture plate. After 18 hours had elapsed, the culture medium was substituted by a phenol red-free medium. The cells were exposed to ultraviolet rays (UVB: 50 mJ/cm^2) from an ultraviolet irradiator “Dermaray M-DMR-80” (ex Toshiba Medical Supply Co., Ltd.). After 4 to 5 hours had elapsed, the cells were collected, and the nucleoprotein was extracted therefrom in a manner known per se in the art. From the resulting nucleoprotein, the activated NF-κB was detected in accordance with the gel shift assay. The amount of the NF-κB was determined by measuring the radioactive value of the NF-κB band with the use of a bioimaging analyzer “BAS 2000” (ex Fuji Film Co., Ltd.).
(§1) In a similar manner to Test Example 1, a nucleoprotein was obtained. Then, the activated AP-1 was detected by the gel shift assay. The radioactive value of the AP-1 band was measured as in Test Example 1, whereby the amount of the AP-1 was determined. The AP-1 activation inhibiting ratio of the test compounds was calculated by the below-described equation (2). The results of the test compounds according to the present invention are shown below in Table 4a, while those of the comparative compounds are shown below in Table 4b.

Hairless mice (SKH-1) [1] = experiment: Test on suppressing function of wrinkles formation induced by ultraviolet rays (No. 1); format: in vivo, mouse; conditions: for Wrinkle score, individual mouse / Wrinkle score, Average: 10% applied; for Wrinkle score, individual mouse: score 0 to 5
Protocol: Test on Suppressing Function of Wrinkles Formation Induced by Ultraviolet Rays (No. 1)
(§2) Hairless mice (SKH-1, female, 5-6 weeks old) were exposed to ultraviolet rays (UVB) three times/week (Monday, Wednesday and Friday) for 5 weeks, each at 50 to 100 mJ/cm^2 by using the above-described “Dermaray M-DMR-80” (ex Toshiba Medical Supply Co., Ltd.). The test compound (N,N′-diacetyl-L-cystine dimethyl ester) was dissolved in a mixed solvent of propylene glycol, ethanol and water, and was applied to the back portion of each of the mice in an amount of 100 μl, 30 to 60 minutes before exposure to ultraviolet rays, just after the completion of the exposure, and on the days free from exposure to ultraviolet rays (Sunday, Tuesday, Thursday and Saturday). From two weeks after the exposure had started, the wrinkles formed on the back portion of each mouse were evaluated once a week based on the below-described standards, and they were indicated as scores. In addition, the function of the inventive compound for inhibiting wrinkle formation induced by ultraviolet rays was judged based on the below-described judging standards.

AP-1 = experiment: Test on the function of inhibiting the AP-1 activation induced by ultraviolet rays (gel shift assay); format: cell-based, human; conditions: single compound
Protocol: Test on the Function of Inhibiting the AP-1 Activation Induced by Ultraviolet Rays.
as §1
AP-1 activation inhibiting ratio (%)={1−(B1-B3)/(B2-B3)}×100 (2)
B1: radioactive value of the AP-1 band upon addition of a test compound.
B2: radioactive value of the AP-1 band when a test compound is not added.
B3: radioactive value of the AP-1 band when a test compound is not added and is not exposed to ultraviolet rays.

Hairless mice (SKH-1) [2] = experiment: Test on inhibiting function of wrinkles formation induced by ultraviolet rays (No. 2), Components (A) and (B) in combination; format: in vivo, mouse; design: scale not given here; conditions: 10% alone
Protocol: as §2
Test on Inhibiting Function of Wrinkles Formation Induced by Ultraviolet Rays (No. 2)
Function of suppressing ultraviolet ray-induced wrinkles formation by the synergistic effects when Components (A) and (B) were used in combination, was judged in a similar manner to Test Example 2. Fifteen to twenty mice were divided into 4 groups, that is, a 1st group to which a mixed solvent of propylene glycol, ethanol and water was to be applied, a 2nd group to which a solution of only Component (A) dissolved in the above-described solvent was to be applied, a 3rd group to which a solution of only Component (B) dissolved in the above-described solvent was to be applied, and a 4th group to which a solution of both Components (A) and (B) dissolved in the above-described solvent was to be applied. An average score of each group was determined.

Row | Structure (SMILES) | Inhibition ratio (%) of NF-κB activation (NF-κB; addition concentration 0.5 mM) | Inhibition ratio (%) of NF-κB activation (NF-κB; addition concentration 1 mM) | Toxicity expressed (inhibition ratio) (human epidermal cells; addition concentration 5 mM, NF-κB test) | Inhibition ratio (%) of NF-κB activation (NF-κB; addition concentration 0.01 mM) | Inhibition ratio (%) of NF-κB activation (NF-κB; addition concentration 0.1 mM) | Wrinkle score, individual mouse (Hairless mice (SKH-1) [1]; 2nd week of UVB exposure) | Wrinkle score, Average (Hairless mice (SKH-1) [1]; 2nd week, solvent group 2.6) | Wrinkle score, individual mouse (Hairless mice (SKH-1) [1]; 3rd week of UVB exposure) | Wrinkle score, Average (Hairless mice (SKH-1) [1]; 3rd week, solvent group 3.6) | Wrinkle score, individual mouse (Hairless mice (SKH-1) [1]; 4th week of UVB exposure) | Wrinkle score, Average (Hairless mice (SKH-1) [1]; 4th week, solvent group 4.0) | Wrinkle score, individual mouse (Hairless mice (SKH-1) [1]; 5th week of UVB exposure) | Wrinkle score, Average (Hairless mice (SKH-1) [1]; 5th week, solvent group 4.4) | Effect on wrinkle formation induced by ultraviolet rays (in words) (Hairless mice (SKH-1) [1]; summary of Table 3) | AP-1 activation Inhibiting ratio (%) (AP-1; 10 μM) | Wrinkle score (group average) (Hairless mice (SKH-1) [2]; 4th week) | Wrinkle score (group average) (Hairless mice (SKH-1) [2]; 5th week) | Toxicity expressed (in inhibiting ratio column) (human epidermal cells; 100 μM, AP-1 test) | AP-1 activation Inhibiting ratio (%) (AP-1; 1 μM)
1 | CCOC(=O)[C@@H](N)CS [L-cysteine ethyl ester] | 60% | 61% | Toxity | – | – | – | – | – | – | – | – | – | – | – | – | – | – | – | –
2 | COC(=O)[C@H](CSSC[C@H](NC(C)=O)C(=O)OC)NC(C)=O [N,N′-diacetyl-L-cystine dimethyl ester] | – | – | – | 47% | 86% | 2 and 1 (4×) and 0 and 3 | 1.3 | 2 (5×) and 3 and 1 | 2.0 | 3 (3×) and 5 (2×) and 2 and 4 | 3.6 | 2 (3×) and 3 (3×) and 4 | 2.7 | exhibited effects for retarding and alleviating the wrinkle formation induced by ultraviolet rays | 4% | 5.0 and 3.0 and 2.5 | 4.0 and 2.0 | – | –
3 | CC1=C(/C=C/C(C)=C/C=C/C(C)=C/C=C/C=C(C)/C=C/C=C(C)/C=C/C2=C(C)C(=O)[C@@H](O)CC2(C)C)C(C)(C)C[C@H](O)C1=O [astaxantin] | – | – | – | – | – | – | – | – | – | – | – | – | – | – | 0% | – | – | Toxicity | −54%
